Measurements as given in patent US6610289B2, “Mutated herpes simplex virus type 1 thymidine kinases and uses thereof” (The Board of Trustees of the University of Arkansas, priority 1998, dated 2003).
Read-outs that look alike come from different tables or passages of the source.

What was measured:
HSV-1 TK [1] = experiment: Substrate screen: phosphorylation of thymidine, TMP, GCV, ACV, dC, AZT by partially purified HSV-1 TKs; format: biochemical, herpes simplex virus type 1
Procedure: The activity of the purified HSV-1 TK was determined using the following standard reaction mixture for thymidine as a substrate (12): 3 μg of protein, 4 μM [^3H-methyl]thymidine (0.1 mCi/mmol), 20 mM potassium phosphate, pH 7.6, 1 mM DTT, 5 mM ATP, 5 mM MgCl2, 25 mM NaF, 40 mM KCl, and 0.5 mg/ml BSA in a total volume of 25 μl for 10 minutes at 37° C. To identify phosphorylated products, 20 μl of the reaction mixture was loaded onto a DE-81 filter and dried, washed once in 1 mM ammonium formate, twice more in 95% ethanol, and counted for radioactivity (12). Radioactivity was determined using an LKB 1214 Rackbeta liquid scintillation counter and corrected for background using controls with enzyme incubated in the absence of ATP. For TMPK activity, 20 μM [^3H-methyl]TMP was substituted for thymidine in the above assay mixture, and [^3H]TDP product was determined by separation from [^3H]TMP on thin layer PEI-cellulose plates developed in 0.35M LiCl (21). Amount of product converted to TDP was quantitated by scintillation counting of the excised TMP and TDP spots. The filter binding assay was used to quantitate the phosphorylation of [^3H]dC (200) μM and [^3H]AZT (200 μM) with the four enzymes. To compare relative enzymatic activities for [^3H]GCV (50 μM) and [^3H]ACV (50 μM), reactions were loaded onto small DE-52 columns packed in Pasteur pipettes as previously described (22).
As an initial screen for activity, each expressed HSV-1 TK enzyme was assayed for phosphorylation of the following substrates: thymidine (4 μM), TMP (20 μM), ACV (50 μM), GCV (50 μM), deoxycytidine (dC, 200 μM), or 3′-azido-2′,3′dideoxythymidine (AZT, 200 μM). Enzymatic conditions for optimal wild-type HSV-1 TK activities were utilized, thus results presented in Table 1 for each substrate were normalized to 100% values for comparative purposes. As expected, the wild-type Gln-125 HSV-1 TK efficiently phosphorylated each of these substrates. For each mutant, there was a striking decrease in their ability to phosphorylate pyrimidine nucleosides, and minimal TMPK activity for the TMP substrate.

HSV-1 TK [2] = target: T1, HSV-1 TK (Human herpesvirus 1, UniProt P0DTH5, Q125D); format: biochemical, herpes simplex virus type 1; conditions: substrate GCV
T1 construct: made in house; host or cells: E. coli BL21SY211 (pET-9a derived pET-TK plasmids)
T1 sequence (P0DTH5 1-376 Q125D): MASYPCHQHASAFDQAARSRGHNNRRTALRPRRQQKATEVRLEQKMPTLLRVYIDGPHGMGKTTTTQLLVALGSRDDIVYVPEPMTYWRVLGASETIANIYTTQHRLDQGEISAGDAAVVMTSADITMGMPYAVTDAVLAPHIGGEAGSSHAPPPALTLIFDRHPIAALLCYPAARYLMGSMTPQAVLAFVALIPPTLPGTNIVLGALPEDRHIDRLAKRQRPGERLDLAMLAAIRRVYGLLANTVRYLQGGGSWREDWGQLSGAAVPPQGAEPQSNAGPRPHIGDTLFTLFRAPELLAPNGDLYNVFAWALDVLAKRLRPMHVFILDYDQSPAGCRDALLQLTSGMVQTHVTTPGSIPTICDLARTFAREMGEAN
Procedure: (§1) For determination of Km values of thymidine and GCV for the four enzymes, the filter binding assay was utilized. The basic reaction components were as above, and the following enzyme concentrations, substrate ranges and times were used under linear initial velocity conditions: for [^3H]thymidine: parent Gln-125TK: 0.1 μg TK, 0.1-4 μM, 10 min; Asn-125TK: 0.2 μg TK, 0.25-10 μM, 15 min; Asp-125TK: 4 μg TK, 0.1-2.5 μM, 30 min; Glu-125TK 0.5 μg TK, 0.5-2.5 μM, 15 min. For [^3H]GCV: parent Gln-125TK: 2 μg TK, 5-100 μM, 15 min; Asn-125TK: 0.6 μg TK, 0.5-15 μM, 15 min; Asp-125TK: Not determined; Glu-125TK 4 μg TK, 50-1000 μM, 25 min. Each reaction was done in triplicate. For calculation of kinetic constants, non-linear regression Michaelis-Menten analyses were done using PSI-PLOT version 5.0 (Poly Software International).
(§2) Unlike the substrate screening assays presented in Table 1, linear velocity conditions for each enzyme and substrate were established prior to Km determinations.

HSV-1 TK [3] = format: biochemical, herpes simplex virus type 1; conditions: substrate thymidine
Procedure: as §1, §2

HCT-116 cells = experiment: MTT cell viability, sensitivity to GCV killing, HCT-116 cell lines expressing HSV-1 TKs; format: cell-based, human; conditions: HCT-116, GCV 0-5 μM, 4 days, FIG. 3B
Procedure: Cells were plated in triplicate and exposed to 0, 0.05, 0.5 or 5 μM GCV for four days. Cell viabilities were determined using MTT dye. […] FIG. 3A: NIH3T3 cell lines, FIG. 3B: HCT-116 cell lines; parental cells (noTK, dark bands); Asp125TK (Asp-#, brick band); Glu-125TK (Glu-#, cross-hatch bands); Asn-125TK (Asn-#, gray bands); wild-type HSV-1 TK (WT-#, striped bands).
A Moloney murine leukemia virus derived plasmid for the expression of HSV-TK, termed pLENTK, has been previously constructed (24). A unique BspEI-MluI restriction fragment within the HSV-TK sequence of pLENTK contains the Gln-125 mutation site. This fragment was removed from wild-type plasmid and replaced with the analogous fragments encoding each mutant. […] Along with wild-type HSV-1 TK plasmid, each mutant-TK plasmid was transfected individually into the murine fibroblast cell line, NIH 3T3, and the human colon tumor cell line, HCT-116, using lipofectin reagent (GIBCO/BRL) (2 μg plasmid, 14 μl lipid per 1×10^6 cells). Cells were maintained in RPMI 1640 media and selected with G418 (200 μg/ml for 2 weeks) as previously described (24). At least eight individual G418 resistant cell clones were picked and grown up for further characterization. Each clone was screened initially for growth inhibition by 25 μM GCV. Those clones that were sensitive were further analyzed for HSV-TK protein expression by Western blot analysis with a polyclonal, rabbit anti-HSV-TK antibody (a gift from Dr. Margaret Black). For each clone, cell numbers were normalized to 1×10^6, and equal protein loading was confirmed for each sample by gel staining. Blotted HSV-1 TK protein bands were visualized on film using ECL chromophore reagents (Amersham). For analysis of GCV sensitivity of different clones, NIH3T3 and HCT-116 cell sets were seeded in 96 well plates in 0.1 ml media (15,000 cells/well). The next day, a dose range of GCV (0.005 to 5 mM, n=3) was added in 0.1 ml media. After 4 days, MTT ([…]) was added for 1.5 hours, followed by DMSO solubilization of the cells and absorbance reading at 540 nm (25).
cDNA for each mutant was incorporated into a Moloney murine leukemia virus plasmid (24). The plasmids for wild-type HSV-1 TK and each mutant were individually transfected into either NIH3T3 cells or the human colon tumor cell line, HCT-116. Following drug selection in G418, individual cell clones were evaluated for sensitivity to GCV and relative levels of HSV-1 TK expression. Using an HSV-1 TK antibody and extracts normalized by protein and cell number, the relative expression levels of HSV-1 TK in each cell clone were determined.

Asp-125
Product formation ACVMP (HSV-1 TK [1]; substrate ACV 50 μM): 14 % of wild-type Gln-125
Product formation AZTMP (HSV-1 TK [1]; substrate AZT 200 μM): 8 % of wild-type Gln-125
Product formation GCVMP (HSV-1 TK [1]; substrate GCV 50 μM): 0.7 % of wild-type Gln-125
Product formation TDP (TMPK activity) (HSV-1 TK [1]; substrate TMP 20 μM): 4 % of wild-type Gln-125
Product formation dCMP (HSV-1 TK [1]; substrate dC 200 μM): >0.1 % of wild-type Gln-125
Product formation TMP (HSV-1 TK [1]; substrate thymidine 4 μM): 0.5 % of wild-type Gln-125
Ganciclovir phosphorylation kinetics (in words) (HSV-1 TK [2]): poorly phosphorylate ganciclovir, but with non-linear kinetics
Ganciclovir phosphorylation kinetics (in words) (HSV-1 TK [2]; listed as Asp-125TK): no linear velocity conditions could be established
Change of kcat for thymidine relative to wild-type (in words) (HSV-1 TK [3]): doubled
Increase of Km for thymidine relative to wild-type enzyme (HSV-1 TK [3]): ~6000 fold
kcat thymidine (HSV-1 TK [3]): 0.11 s⁻¹
Km (HSV-1 TK [3]; read-out: Km thymidine): 6 mM
Dose dependent cell killing by GCV (cell viability, MTT) (HCT-116 cells): little effect on cell viability
